In assay [1] the test system is rat polymorphonuclear leukocytes (PMN). Nature of the assay: Production of O2- by polymorphonuclear leukocytes stimulated with PMA (cytochrome C reduction). The assay is classed as cell-based. The conditions noted are these: Leukocyte, PMA 125 ng/ml; for inhibition at 3.3 µM: Conc. 3.3 µM; for inhibition at 10 µM: Conc. 10.0 µM; for inhibition at 33 µM: Conc. 33.0 µM. The procedure: In 20 hours after injection of 10 ml of 1 % casein into the abdominal cavity of a […], many polymorphonuclear leukocytes appear in the cavity. An activity of the polymorphonuclear leukocytes can be determined in an in vitro system. Briefly stated, addition of phorbol myristate acetate, PMA, as a stimulant into a test tube containing a buffer and the polymorphonuclear leukocytes induces the production of O2^- by the polymorphonuclear leukocytes. […] See Wei Hsueh et al., Nature, 290 (23), 710-713 (1981).
Thus, measurements were carried out using rat polymorphonuclear leukocytes (PMN) induced by 1 % casein and PMA (phorbol-12-myristate-13-acetate) as a stimulant. First, 1,830 µl of phosphate buffer, pH 7,4, 50 µl of cytochrome C (Cyt C) in BSA, 20 µl of a sample (compound) and 50 µl of PMN were stirred at 37°C. After adding 50 µl of PMA to a final concentration of 125 ng/ml, the change of Cyt C reduction was traced by an absorption at 550 nm. The number of PMN per tube was 2 x 10^6 cells.

Another assay has as its system isolated hepatocytes. Nature of the assay: Formation of lipid peroxide in isolated hepatocytes after addition of carbon tetrachloride. It is filed as cell-based, rat. The conditions noted are these: Concentration 10 µM, carbon tetrachloride 5 mM; for inhibition at 10 µM: Rattus norvegicus, Hepatocyte, 3 hours, read-out: Free MDA (3 hours) % Inhibition. How it is done:
Lipid peroxide was produced in vitro in cell membranes by using hepatocytes isolated by means of collagenase.
The isolated hepatocytes were prepared by the method of collagenase perfusion from the liver of rat which was fed for one week with phenobarbital in drinking water. The isolated hepatocytes (1 x 10^6 cells/ml Hanks solution containing 1 % BSA and 10 mM HEPES, pH 7.4) were taken into a conical flask in which test compounds were placed. Then, the cells were incubated at 37°C and produced the lipid peroxide by the addition of carbon tetrachloride (5 mM).
The activity of the compounds shown in Table I and vitamin E to inhbit the formation of the lipid peroxide was measured. The amount of the lipid peroxide was determined in accordance with the method of Mihara et al. (Yakugaku Zasshi; Journal of the Pharmaceutical Society of Japan, Vol. 102, No. 7, 670-677 (1982)) and expressed in terms of inhibition rate (%) of the formation of lipid peroxide after the addition of carbon tetrachloride.

A further assay concerns Mast cells. The assay is described as follows: Histamine release from mast cells stimulated with compound 48/80 or ascarid protein. The assay is classed as cell-based, male Wistar rats. As to conditions: compound 48/80 and protein from epidermis of ascarid as stimulants. How it is done: Histamine release can be experimentally investigated in vitro with use of mast cells derived from rat's abdominal cavity. Thus, after the mast cells are pre-incubated in the presence of an IgE antibody, e.g. IgE antibody prepared by sensitization of rabbit with a protein derived from the epidermis of ascarid, addition of a corresponding IgE antigen, e.g. the protein prepared from the epidermis of ascarid, induces the release of histamine from the mast cells. Such release of histamine can also be induced by addition of an artificial stimulant compound 48/80, ATP (adenosine triphosphate) to mast cells.
Mast cells were collected from the abdominal cavity of male Wistar rats of 400 - 450 g in body weight in a conventional manner. After pre-incubation of 5 x 10^4 cells in Krebs-Ringer buffer, pH 7.4, for 10 minutes, 0,1 µg/ml of the compound 48/80 was added. After incubation for an additional 10 minutes, the cells were removed by centrifugation at 3,000 rpm for 5 minutes. Thereafter, histamine in the supernatant was quantitatively measured according to Shore's method described in J. Phar. […] As a control, total amount of histamine contained in mast cell was measured. A ratio of the amount of histamine released after the treatment with the compound 48/80 as a stimulant to the total amount of histamine as the control was calculated according to the following equation : [formula]

Assay [2] relates to liver of the carbon tetrachloride-treated rat. Nature of the assay: Lipid peroxide in the liver of carbon tetrachloride-treated rat, oral administration. The conditions noted are these: 24 hours after CCl4. The assay is classed as in vivo. The procedure: The lipid peroxide in the liver of the rat treated with CC14 increases. Carbon tetrachloride of 25 % V/V in olive oil was administered orally to rats by the dose of 2 ml/kg. After 24 hours, the amount of the lipid peroxide in the liver of the carbon tetrachloride-treated rat was increased to approx. 6 times higher than untreated rat. The amount of the lipid peroxide was determined by the method of Mihara et al. as in Example 3 and was expressed in terms of MDA amount (nmol) in 1 g of liver. The activity of compound No. 1 and vitamin E to inhibit the formation of the lipid peroxide was measured. Compound No. 1 was orally administered to the carbon tetrachloride-treated rat in the form of suspension in the surfactant "Tween 80" by the amount of 25, 50 or 100 mg/kg/day nine days before the treatment of carbon tetrachloride.

Another assay concerns rat liver microsome. Nature of the assay: Formation of lipid peroxide in vitro in rat liver microsome (TBA method). The assay is classed as biochemical. The procedure: Lipid peroxide was produced in vitro by using rat liver microsome. The microsome was prepared in a usual method from rat starved for 24 hours, and the final concentration thereof was adjusted to 15 - 18 mg proteins/ml.
To the thus prepared microsome was added Fe(N03)3, ADP (adenosine diphosphate), NADPH (nicotinamide adenine dinucleotide phosphate), glucose 6-phosphate and glucose 6-phosphate dehydrogenase so that the final concentrations of these additives were 200 uM, 7 mM, 7.5 mM, 20 mM and 2.0 U.I., respectively.
The resultant mixture was incubated at 37°C to produce the lipid peroxide. The activity of compound No. 1 and vitamin E to inhibit the formation of the lipid peroxide was measured. The quantity of the lipid peroxide was determined in accordance with TBA method (thiobarbiturate method, "Biochemical Medicine", Vol. 15, p. 212 (1976)) and expressed in terms of MDA (malon dialdehyde) amount (nmol) in 1 mg of protein.
On the technique in general: Liver microsomes are a subcellular fraction often used to study metabolism.

The mark [3] stands for this setting: 10 µM, Incubation Period 10 min.
[4] abbreviates: 100 µM, Incubation Period 5 min.
[5] abbreviates: 100 µM, Incubation Period 10 min.

The results in this text go back to EP0201359A2, “Use of phthalide isoquinoline derivatives for treatments inhibiting the formation of lipid peroxides” (MITSUBISHI KASEI CORPORATION, priority 1985, dated 1986).

Turning to `CCOc1c(N)c2c(c(OCC)c1OCC)C(C1c3cc(OC)c(OC)cc3CCN1C)OC2=O` (stereo not drawn) [compound 6], in assay [1], the inhibition at 3.3 µM worked out at 0.9%, at 10 µM the inhibition was 14%, the inhibition at 33 µM came to 41.1% and the IC50 stood at 45.1 µM. In the assay on isolated hepatocytes, the inhibition at 10 µM was 47.6%.
For `CCOc1c(N)c2c(c(OCC)c1OCC)C(C1c3c(cc(OC)c4c3OCO4)CCN1C)OC2=O` (stereo not drawn) [compound 3], in assay [1], 3.3 µM produced 34.9% inhibition, the inhibition at 10 µM came out at 59.9%, 33 µM produced 66.2% inhibition and the IC50 was found to be 7.2 µM. Moreover, the “inhibiting activity to the histamine release” value in the assay on Mast cells is given as “strong inhibiting activity”. Also, in the assay on isolated hepatocytes, the inhibition at 10 µM turned out to be 76.9%.
For the compound `COc1ccc2c(c1OC)C(=O)OC2C1c2c(cc3c(c2OC)OCO3)CCN1C` (stereo not drawn) [compound 2], the inhibition at 10 µM in the assay on isolated hepatocytes is 42.4%.
As for Vitamin E [reference compound], the “MDA Amount Produced” value was 104.0 ± 18.4 nmol/g of liver in assay [2] (50 mg/kg oral); 2.37 ± 0.21 nmol/mg of protein with rat liver microsome (setting [3]); 2.06 ± 0.001 nmol/mg of protein in the assay with rat liver microsome (setting [4]); 2.62 ± 0.07 nmol/mg of protein with rat liver microsome (setting [5]); 2.06 ± 0.016 nmol/mg of protein with rat liver microsome (1000 µM, Incubation Period 5 min); 2.29 ± 0.14 nmol/mg of protein with rat liver microsome (1000 µM, Incubation Period 10 min). Moreover, the “Free MDA (3 hours) % Inhibition” value in the assay on isolated hepatocytes was determined as 13%.
In assay [1], `CCOc1c(N)c2c(c(OCC)c1OCC)C(C1c3c(cc4c(c3OC)OCO4)CCN1CC)OC2=O` (stereo not drawn) [compound 5, 2-ethyl-6,7-methylenedioxy-8-methoxy-1-(4,5,6-triethxy-7-amino-3-phthalidyl)-1,2,3,4-tetrahydroisoquinoline] yielded an inhibition at 3.3 µM of 49.2%, an inhibition at 10 µM of 65.8%, an inhibition at 33 µM of 60.3% and an IC50 of 1.8 µM. Moreover, in the assay with isolated hepatocytes, the inhibition at 10 µM is 68.6%.
In the case of `CCOc1c(N)c2c(c(OCC)c1OCC)C(C1c3c(cc4c(c3OC)OCO4)CCN1C)OC2=O` (stereo not drawn) [Compound No. 1, 7-amino-4,5,6-triethoxy-3-(5,6,7,8-tetrahydro-4-methoxy-6-methyl-1,3-dioxolo(4,5-g)isoquinolin-5-yl)phthalide], the “MDA Amount Produced” value was 333.0 ± 54.3 nmol/g of liver in assay [2] (25 mg/kg oral); 328.5 ± 50.8 nmol/g of liver in assay [2] (50 mg/kg oral); 171.0 ± 23.6 nmol/g of liver in assay [2] (100 mg/kg oral); 1.80 ± 0.12 nmol/mg of protein in the assay on rat liver microsome (3.3 µM, Incubation Period 5 min); 2.25 ± 0.21 nmol/mg of protein in the assay with rat liver microsome (3.3 µM, Incubation Period 10 min); 1.71 ± 0.12 nmol/mg of protein with rat liver microsome (10 µM, Incubation Period 5 min). For the same compound, the “MDA Amount Produced” value is on record as 1.80 ± 0.06 nmol/mg of protein in the assay with rat liver microsome (setting [3]); 1.50 ± 0.05 nmol/mg of protein with rat liver microsome (33 µM, Incubation Period 5 min); 1.62 ± 0.02 nmol/mg of protein in the assay on rat liver microsome (33 µM, Incubation Period 10 min); 1.37 ± 0.02 nmol/mg of protein in the assay with rat liver microsome (setting [4]); 1.37 ± 0.05 nmol/mg of protein in the assay on rat liver microsome (setting [5]). Testing at 3.3 µM in assay [1] gave an inhibition of 15.4%. In addition, the inhibition at 10 µM is 53.9% in assay [1] and 77.3% in the assay on isolated hepatocytes. Moreover, testing at 33 µM in assay [1] gave an inhibition of 58.8%. This compound also registered an IC50 in assay [1] of 15.9 µM. The “inhibiting activity to the histamine release” value in the assay on Mast cells was “strong inhibiting activity”.
In the case of `CCOc1c(OCC)c2c(c([N+](=O)[O-])c1OCC)C(=O)OC2C1c2c(cc3c(c2OC)OCO3)CCN1C` (stereo not drawn) [compound 4], the inhibition at 10 µM in the assay with isolated hepatocytes stood at 28.6%.

A word on the inhibition: it is the percentage by which the read-out fell short of the control. One may read the IC50 as the concentration needed to halve the response being measured. A higher IC50 goes with lower potency.
